From patent US20230061736A1, “GPR119 AGONISTS” (Kallyope, Inc., priority 2019, published 2023)

Molecular target: T1, human GPR119 (hGPR119) (Homo sapiens, UniProt Q8TDV5)
T1 construct: expressed in transfected cells
T1 sequence (Q8TDV5 1-335): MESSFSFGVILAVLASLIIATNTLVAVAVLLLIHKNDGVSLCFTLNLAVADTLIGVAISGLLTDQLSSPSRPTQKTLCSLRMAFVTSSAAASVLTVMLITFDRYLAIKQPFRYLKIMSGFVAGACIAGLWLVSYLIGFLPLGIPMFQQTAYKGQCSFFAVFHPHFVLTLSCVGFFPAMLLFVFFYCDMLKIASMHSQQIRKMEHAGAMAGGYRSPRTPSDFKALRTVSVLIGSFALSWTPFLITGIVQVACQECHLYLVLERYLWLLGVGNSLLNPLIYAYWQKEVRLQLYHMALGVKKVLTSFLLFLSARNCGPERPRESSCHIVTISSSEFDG
Experiment: cAMP accumulation assay (cAMP Gs dynamic HTRF kit)
Format: cell-based
Conditions: CHO-K1 cells stably expressing hGPR119, 4-parameter fit; for Emax: 1 h, % activity normalized to Max/Min controls; for EC50: cAMP accumulation
Protocol: CHO-K1 cells stably expressing human GPR119 (hGPR119) were prepared by transfection of a GPR119-carrying plasmid using Lipofectamine 2000 (following manufacturer instructions). A stable cell line was established using the limiting dilution method with geneticine selection. Assay-ready frozen (ARF) cells were prepared and used throughout the study.
The assay was performed in a 384-well plate format using the cAMP Gs dynamic assay kit from Cisbio. ARF cells expressing hGPR119 were thawed, washed and then resuspended in cAMP stimulation buffer at a cell density of 1.1×10^6 cells/mL. Cells were plated at a density of ˜10,000 cells/well (9 μL/well). Dose response curves for the tested compounds were prepared in a cAMP stimulation buffer, containing 0.1% Tween 80 at 4 fold the final concentration. The compounds were then transferred to the cell plates using BRAVO (3 μL/well) and the plates were incubated for 60 minutes at 37° C./5% CO2. Detection buffer (10 μL, prepared as described in the cAMP Gs dynamic kit) were added to each well, and the plates were incubated at ambient temperature for 1 hr.
RT-FRET was measured using a ClarioSTAR plate reader, calculating the ratio between emissions at 665 nm and 620 nm (HTRF ratio). The HTRF ratio for positive (Max) and negative (Min) controls were used to normalize HTRF data and generate values for % activity. EC50 and Max activity values were determined using a standard 4-parameter fit.

| Structure (SMILES) | Emax | EC50 |
| --- | --- | --- |
| O=C(Cc1ccc(OCCCCC2CC3(CCN(c4ncc(Cl)cn4)CC3)C2)cc1F)N1CC(CNC[C@H](O)[C@@H](O)[C@H](O)[C@H](O)CO)C1 [Example 106, 2-[4-[4-[7-(5-chloropyrimidin-2-yl)-7-azaspiro[3.5]nonan-2-yl]butoxy]-2-fluoro-phenyl]-1-[3-[[[(2S,3R,4R,5R)-2,3,4,5,6-pentahydroxyhexyl]amino]methyl]azetidin-1-yl]ethanone] | 100 to 130% | 100 to 1000 nM |
| CCOc1cnc(N2CCC(CCCOc3ccc(CC(=O)N4CC(CNC[C@H](O)[C@@H](O)[C@H](O)[C@H](O)CO)C4)c(F)c3)CC2)nc1 (racemic) [Example 80, 2-[4-[3-[1-(5-ethoxypyrimidin-2-yl)-4-piperidyl]propoxy]-2-fluoro-phenyl]-1-[3-[[[rac-(2S,3R,4R,5R)-2,3,4,5,6-pentahydroxyhexyl]amino]methyl]azetidin-1-yl]ethanone] | 100 to 130% | 100 to 1000 nM |
| CCOc1cnc(N2CCC(CCCOc3cc(F)c(CC(=O)N4CCC(O)(CNCC(CO)(CO)CO)C4)c(F)c3)CC2)nc1 (centres unmarked) [Example 189, 2-[4-[3-[1-(5-ethoxypyrimidin-2-yl)-4-piperidyl]propoxy]-2,6-difluoro-phenyl]-1-[3-hydroxy-3-[[[3-hydroxy-2,2-bis(hydroxymethyl)propyl]amino]methyl]pyrrolidin-1-yl]ethanone] | 100 to 130% | ≤ 100 nM |
| O=C(Cc1ccc(OCCCC2CCN(c3ncc(Cl)cn3)CC2)cc1F)N1CC[C@H](CNCC(O)(CO)CO)C1 [Example 101, 2-[4-[3-[1-(5-chloropyrimidin-2-yl)-4-piperidyl]propoxy]-2-fluoro-phenyl]-1-[(3R)-3-[[[2,3-dihydroxy-2-(hydroxymethyl)propyl]amino]methyl]pyrrolidin-1-yl]ethanone] | 100 to 130% | ≤ 100 nM |
| O=C(Cc1ccc(OCCCC2CCN(c3ncc(Cl)cn3)CC2)cc1F)NCCO[C@H]1O[C@H](CO)[C@@H](O)[C@H](O)[C@@H]1O (racemic) [Example 16, 2-[4-[3-[1-(5-chloropyrimidin-2-yl)-4-piperidyl]propoxy]-2-fluoro-phenyl]-N-[2-[rac-(2S,3S,4S,5S,6R)-3,4,5-trihydroxy-6-(hydroxymethyl)tetrahydropyran-2-yl]oxyethyl]acetamide] | 100 to 130% | 100 to 1000 nM |
| COCc1cnc(N2CCC(CCCCOc3cc(F)c(CC(=O)N4CC(CNC[C@H](O)[C@@H](O)[C@H](O)[C@H](O)CO)C4)c(F)c3)CC2)nc1 (racemic) [Example 85, 2-[2,6-difluoro-4-[4-[1-[5-(methoxymethyl)pyrimidin-2-yl]-4-piperidyl]butoxy]phenyl]-1-[3-[[[rac-(2S,3R,4R,5R)-2,3,4,5,6-pentahydroxyhexyl]amino]methyl]azetidin-1-yl]ethanone] | 100 to 130% | 100 to 1000 nM |
| O=C(Cc1ccc(OCCCC2CCN(c3ncc(Cl)cn3)CC2)cc1F)N1CC(CNC[C@H](O)[C@H](O)[C@H](O)CO)C1 [Example 165, 2-[4-[3-[1-(5-chloropyrimidin-2-yl)-4-piperidyl]propoxy]-2-fluoro-phenyl]-1-[3-[[[(2S,3S,4R)-2,3,4,5-tetrahydroxypentyl]amino]methyl]azetidin-1-yl]ethanone] | 100 to 130% | ≤ 100 nM |
| COCc1cnc(N2CCC(CCCOc3cc(F)c(CC(=O)N4CC[C@@H](CNCC(O)(CO)CO)C4)c(F)c3)CC2)nc1 [Example 159, 2-[2,6-difluoro-4-[3-[1-[5-(methoxymethyl)pyrimidin-2-yl]-4-piperidyl]propoxy]phenyl]-1-[(3S)-3-[[[2,3-dihydroxy-2-(hydroxymethyl)propyl]amino]methyl]pyrrolidin-1-yl]ethanone] | 100 to 130% | ≤ 100 nM |
| O=C(Cc1ncc(OCCCC2CCN(c3ncc(Cl)cn3)CC2)cc1F)N1CC(CNC[C@H](O)[C@@H](O)[C@H](O)[C@H](O)CO)C1 [Example 170, 2-[5-[3-[1-(5-chloropyrimidin-2-yl)-4-piperidyl]propoxy]-3-fluoro-2-pyridyl]-1-[3-[[[(2S,3R,4R,5R)-2,3,4,5,6-pentahydroxyhexyl]amino]methyl]azetidin-1-yl]ethanone] | 100 to 130% | 100 to 1000 nM |
| COCc1cnc(N2CCC(CCCOc3cc(F)c(CC(=O)N4CC[C@H](C(=O)NC[C@H](O)[C@@H](O)[C@H](O)[C@H](O)CO)C4)c(F)c3)CC2)nc1 [Example 131, (3S)-1-[2-[2,6-difluoro-4-[3-[1-[5-(methoxymethyl)pyrimidin-2-yl]-4-piperidyl]propoxy]phenyl]acetyl]-N-[(2S,3R,4R,5R)-2,3,4,5,6-pentahydroxyhexyl]pyrrolidine-3-carboxamide] | 100 to 130% | ≤ 100 nM |
| O=C(Cc1ccc(OCCCC2CCN(c3ncc(Cl)cn3)CC2)cc1F)NCCCC(=O)NC(CO)CO [Example 21, 4-[[2-[4-[3-[1-(5-chloropyrimidin-2-yl)-4-piperidyl]propoxy]-2-fluoro-phenyl]acetyl]amino]-N-[2-hydroxy-1-(hydroxymethyl)ethyl]butanamide] | ≥ 130% | 100 to 1000 nM |
| CCOc1cnc(N2CCC(CCCOc3ccc(CC(=O)N4CC[C@@H](CNC(CO)(CO)CO)C4)c(F)c3)CC2)nc1 [Example 152, 2-[4-[3-[1-(5-ethoxypyrimidin-2-yl)-4-piperidyl]propoxy]-2-fluoro-phenyl]-1-[(3S)-3-[[[2-hydroxy-1,1-bis(hydroxymethyl)ethyl]amino]methyl]pyrrolidin-1-yl]ethanone] | ≥ 130% | ≤ 100 nM |
| CCc1cnc(N2CCC(CCCOc3ccc(CC(=O)N4CC(CNCCNC(=O)NC(CO)(CO)CO)C4)c(F)c3)CC2)nc1 [Example 65, 1-(1,3-dihydroxy-2-(hydroxymethyl)propan-2-yl)-3-(2-(((1-(2-(4-(3-(1-(5-ethylpyrimidin-2-yl)piperidin-4-yl)propoxy)-2-fluorophenyl)acetyl)azetidin-3-yl)methyl)amino)ethyl)urea] | 100 to 130% | ≤ 100 nM |
| O=C(Cc1ccc(OCCCC2CCN(c3ncc(Cl)cn3)CC2)cc1F)N1CCC(O)(C(=O)NCC(CO)(CO)CO)C1 (centres unmarked) [Example 182, 1-[2-[4-[3-[1-(5-chloropyrimidin-2-yl)-4-piperidyl]propoxy]-2-fluoro-phenyl]acetyl]-3-hydroxy-N-[3-hydroxy-2,2-bis (hydroxymethyl)propyl]pyrrolidine-3-carboxamide] | 100 to 130% | ≤ 100 nM |
| CCCc1cnc(N2CCC(CCCOc3ccc(CC(=O)N4CC(CNC(CO)(CO)CO)C4)c(F)c3)CC2)nc1 [Example 72, 1-(3-(((1,3-dihydroxy-2-(hydroxymethyl)propan-2-yl)amino)methyl)azetidin-1-yl)-2-(2-fluoro-4-(3-(1-(5-propylpyrimidin-2-yl)piperidin-4-yl)propoxy)phenyl)ethan-1-one] | ≥ 130% | ≤ 100 nM |
| O=C(OCCC1CCN(c2ncc(Cl)cn2)CC1)c1ccc(CC(=O)N2CC(CNC[C@H](O)[C@@H](O)[C@H](O)[C@H](O)CO)C2)c(F)c1 (racemic) [Example 91, 2-[1-(5-chloropyrimidin-2-yl)-4-piperidyl]ethyl 3-fluoro-4-[2-oxo-2-[3-[[[rac-(2S,3R,4R,5R)-2,3,4,5,6-pentahydroxyhexyl]amino]methyl]azetidin-1-yl]ethyl]benzoate] | 100 to 130% | 1000 to 10000 nM |
| O=C(Cc1ccc(OCCCC2CCN(c3ncc(Cl)cn3)CC2)cc1F)N1CC(CCNC(CO)(CO)CO)C1 [Example 59, 2-(4-(3-(1-(5-chloropyrimidin-2-yl)piperidin-4-yl)propoxy)-2-fluorophenyl)-1-(3-(2-((1,3-dihydroxy-2-(hydroxymethyl)propan-2-yl)amino)ethyl)azetidin-1-yl)ethan-1-one] | 100 to 130% | 100 to 1000 nM |
| O=C(NCCCCCCS(=O)(=O)O)C1CN(C(=O)Cc2ccc(OCCCC3CCN(c4ncc(Cl)cn4)CC3)cc2F)C1 [Example 175, 6-[[1-[2-[4-[3-[1-(5-chloropyrimidin-2-yl)-4-piperidyl]propoxy]-2-fluoro-phenyl]acetyl]azetidine-3-carbonyl]amino]hexane-1-sulfonic acid] | 100 to 130% | 100 to 1000 nM |
| O=C(Cc1ccc(OCCCC2CCN(c3ncc(Cl)cn3)CC2)cc1F)N1CC(CNCCOCCOCCO)C1 [Example 51, 2-[4-[3-[1-(5-chloropyrimidin-2-yl)-4-piperidyl]propoxy]-2-fluoro-phenyl]-1-[3-[[2-[2-(2-hydroxyethoxy)ethoxy]ethylamino]methyl]azetidin-1-yl]ethanone] | 50 to 100% | ≤ 100 nM |
